Experimental data reported in patent US7868135B2, “Compositions of lipopeptide antibiotic derivatives and methods of use thereof” (priority 2003, dated 2011).

Key:
[1] = test system: Streptococcus pneumoniae (SPN032, ATCC 1081); experiment: Intranasal murine lung infection model; format: in vivo; settings: Swiss CD1 mice, i.n. S. pneumoniae, i.v. treatment at 3, 24 and 48 hours post-infection, deaths over ten days
Experimental: (§1) Other exemplary in vivo models of infection that may be used to assess, for example, the efficacy of an antimicrobial lipopeptide of the instant disclosure include the following: (A) a mouse (murine) model of lung infection (pneumonia) wherein the bacterial infection is administered intranasally (i.n.); (B) a murine thigh muscle model wherein the bacterial infection is administered intramuscularly (i.m.) in normal or neutropenic (immunocompromised) mice; and (C) a combination murine thigh muscle model (i.m. infection)/lung (i.n.) infection.
Antimicrobial lipopeptide derivatives of the instant invention were tested for antimicrobial activity against Gram-positive bacteria in an intranasal (i.n.) murine lung infection model (i.e., bacteria were innoculated i.n. and lipopeptide compounds were administered i.v.). Streptococcus pneumoniae (SPN032, ATCC 1081) were grown on 5% sheep blood agar plates for 24 h at 37° C., harvested and then resuspended in 0.9% saline. A group of eight Swiss CD1 mice were sedated with 2% isoflurane, and each was infected i.n. dropwise to the nares with 50 μl of the prepared bacterial inoculum (i.e., a dose of about 10^6 CFU/mouse). […] The ED50 (mg/kg) for each compound was calculated using the method of Reed and Meunch (Am. J. Hyg. 27: 493, 1938).

[2] = test system: Staphylococcus aureus (MSSA); settings: 24 h
How it was run: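 Broth microdilution MIC per NCCLS M7-A6 with doubling serial dilutions, in cation-adjusted Mueller-Hinton broth supplemented with 0.625 mM calcium.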

[3] = test system: S. pneumoniae (SPN 0032, ATCC 10813); experiment: Intraperitoneal murine model of protection against infection (ED50, Table 21); format: in vivo, Streptococcus pneumoniae; settings: Swiss CD1 mice infected i.p., compound i.v.
Source text: A variety of in vivo models may be used to assess the antimicrobial properties of lipopeptide derivative compounds of this disclosure. For example, antimicrobial compounds of the instant disclosure may be tested for efficacy by measuring a compound's ability to protect a mouse against a microbial infection, such as an infection or disease caused by or related to Gram-positive bacteria, including Staphylococcus aureus, Streptococcus pneumoniae, and Enterococcus faecalis. […] A certain period after infection, mice are then individually treated, for example intravenously (i.v.), with a lipopeptide derivative of this disclosure.
Antimicrobial lipopeptide derivatives of the instant invention were tested for antimicrobial activity against Gram-positive bacteria in an intraperitoneal (i.p.) murine model (i.e., bacteria were injected i.p. and lipopeptide compounds were administered intravenously (i.v.)). Mice were infected with Staphylococcus aureus, Streptococcus pneumoniae, or Enterococcus faecalis, which were prepared as follows: S. aureus Smith (SAU0017, ATCC 19636) were grown in culture overnight on trypticase soy broth, harvested and then resuspended in fresh media containing 5% mucin (Sigma Chemical Co.); S. pneumoniae (SPN 0032, ATCC 10813) were grown overnight on blood agar plates and re-suspended in 0.9% sterile saline; and E. faecalis EFS0040 (clinical isolate) were grown overnight in culture on blood heart infusion broth, washed and resuspended in 0.9% saline and mixed with equal volume of sterile fecal rat extract. Swiss CD1 mice were each infected i.p. with bacteria at the following doses: S. aureus at 10^6 CFU/mouse; S. pneumoniae at 10^2 CFU/mouse; or E. faecalis at 10^7.5 CFU/mouse. […] The ED50 for each compound was calculated using the method of Reed and Meunch (Am. J. Hyg. 27: 493, 1938).

[4] = test system: Streptococcus pneumoniae (SPN0002); experiment: Lung infection model in neutropenic mice; format: in vivo
Experimental: Antimicrobial lipopeptide derivatives of the instant invention were tested for antimicrobial activity against Gram-positive bacteria in an intranasal (i.n.), immunocomprimised murine lung infection model (i.e., bacteria were innoculated i.n. and lipopeptide compounds were administered i.v.). Streptococcus pneumoniae (SPN0002) were grown on 5% sheep blood agar plates for 24 h at 37° C., harvested and then resuspended in 0.9% saline. A group of three to four Swiss CD1 mice were rendered neutropenic by administration of cyclophosphamide (Sigma Chemical Co.; 150 mg/kg, i.p.) on day −4 and −1 before infection. At time −18 to −24 hours, each mouse was infected i.n. dropwise via the nares with 50 μl of the prepared bacterial inoculum (i.e., a dose of about 5×10^6 CFU/mouse). At 18 to 24 hours post-infection, the groups of mice received i.v. (1) a lipopeptide derivative formulated in a 5% D-mannitol solution at a dose of about 1 mg/kg, 3 mg/kg, 10 mg/kg, or 30 mg/kg; (2) the 5% mannitol vehicle alone at a dose volume of 10 mL/kg; or (3) a known antibiotic, such as ampicillin, at a similar dose as the lipopeptide compounds. At 18 to 24 hours post-antibiotic treatment, mice were sacrificed and lungs harvested. Lungs were sampled by spreading homogenates on blood agar plates and incubating for 24 h at 37° C., and then counting the number of CFU. The EKill (killing effect; i.e., log10 CFU/lung reduction as compared to CFU count at intial treatment time) and the EMax (maximum reduction effect; i.e., log10 CFU/lung reduction as compared to CFU count of control at 24 hours) for each compound was calculated.

[5] = test system: Staphylococcus aureus (SAU0017); experiment: Thigh infection model in neutropenic mice; format: in vivo; settings: neutropenic Swiss CD1 mice, i.m. S. aureus, i.v. treatment two hours post-infection, thigh CFU at 24 hours
Experimental: as §1

## CCCCCCCCCCCCCCC(=O)NC(CC(=O)O)C(=O)NC1C(=O)N2CCCCC2C(=O)NC(C(C)C(=O)O)C(=O)NC(CC(=O)O)C(=O)NCC(=O)NC(CC(=O)O)C(=O)NCC(=O)NC(C(C)NC(=O)CNC(=O)[C@@H](N)CCCCN)C(=O)NC(C(C)C)C(=O)N2CCCC2C(=O)NC1C (stereo partly drawn) [Compound 4, C15-Amphomycin-9-Gly-Lys]
[1]
  ED50: 1.3 mg/kg

## CCCCCCCCCCCCCCC(=O)NC(CC(=O)O)C(=O)NC1C(=O)N2CCCCC2C(=O)NC(C(C)C(=O)O)C(=O)NC(CC(=O)O)C(=O)NCC(=O)NC(CC(=O)O)C(=O)NCC(=O)NC(C(C)NC(=O)CN(C)C(=O)[C@@H](N)CCCCN)C(=O)NC(C(C)C)C(=O)N2CCCC2C(=O)NC1C (stereo partly drawn) [Compound 199, C15-Amphomycin-9-Sar-Lys]
[2]
  MIC: 0.5 to 1 mg/L

## CCCCCCCCCCCCCCC(=O)NC(CC(=O)O)C(=O)NC1C(=O)N2CCCCC2C(=O)NC(C(C)C(=O)O)C(=O)NC(CC(=O)O)C(=O)NCC(=O)NC(CC(=O)O)C(=O)NCC(=O)NC(C(C)NC(=O)CCN)C(=O)NC(C(C)C)C(=O)N2CCCC2C(=O)NC1C (stereo not drawn) [Compound 147, C15-Amphomycin-9-(β-Ala)]
[3]
  ED50 in Mice, S. pneumoniae (SPN0032): 0.65 mg/kg
[4]; 30 mg/kg i.v.
  EKill (log10 CFU/lung reduction versus count at initial treatment time): 3.2 log10 CFU/lung
[4]; highest dose level 30 mg/kg i.v.
  log10 CFU/lung reduction (EMax, versus control at 24 hours): 4.0 log10 CFU/lung
[5]
  ED50: 1.1 to 1.8 mg/kg
